US20170218389A1, “METHODS AND COMPOSITIONS FOR STOMATA REGULATION, PLANT IMMUNITY, AND DROUGHT TOLERANCE” (priority 2016, published 2017)
One block for each molecule: values may come before it.

What was measured:
AtNHR1A [1] = test: qRT-PCR of AtNHR1A expression in treated wild-type Col-0 plants; type: in vivo, Arabidopsis; conditions: Col-0, syringe-infiltrated ABA 10 μM, 6 hpt, relative to 0 hr
Description: (§1) Total RNA was purified from Arabidopsis leaves infiltrated with water (mock control), nonhost pathogen P. syringae pv. tabaci (Psta), or host pathogen P. syringae pv. maculicola (Psm). Total RNA was extracted using TRIzol (Invitrogen, NT) and 2 treated or inoculated leaves were pooled to represent one biological replicate. Total RNA was treated with DNase I (Invitrogen, NY), and 1 μg RNA was used to generate cDNA using Superscript III reverse transcriptase (Invitrogen, NY) and oligo d(T)15-20 primers. The cDNA (1:20) was then used for qRT-PCR using Power SYBR Green PCR master mix (Applied Biosystems, Foster City, Calif., USA) with an ABI Prism 7900 HT sequence detection system (Applied Biosystems). Primers specific for AtUBQ5 were used to normalize small differences in template amounts. Average Cycle Threshold (CT) values calculated using Sequence Detection Systems (version 2.2.2; Applied Biosystems) from duplicate samples were used to determine the fold expression relative to controls.
(§2) The gene expression patterns of AtNHR1A and AtNHR1B were determined by quantitative RT-PCR (qRT-PCR) after treating wild-type Col-0 plants with ABA, PAMPs (Flg22 and LPS), host (P. syringae pv. maculicola) and nonhost (P. syringae pv. tabaci) bacterial pathogens. […]

[2] = tested on: stomata of Arabidopsis epidermal peels; test: Stomatal aperture in epidermal peels of Col-0 and AtGCN4 overexpressor lines; type: cell-based; conditions: both wild-type Col-0 and AtGCN4 overexpressor lines, after ABA treatment
Description: A representative histogram is depicted of stomatal aperture in Arabidopsis plant epidermal peels from wild-type Col-0 and GCN4-overexpressing (AtGCN4-OE6 and AtGCN4-OE16) lines measured 4 hours after treatment with MES buffer, COR, ABA, or COR+ABA.
Upon detection of PAMPs, stomata rapidly closes to prevent entry of the pathogen into apoplast (Melotto et al., 2006; Lee et al., 2013). […] Epidermal peels of AtGCN4 overexpressing lines were used to investigate whether stomata reopen after treatment with MES buffer (stomata opening buffer; control) or the host pathogen P. syringae pv. tomato DC3000. In wild-type Col-0, stomata reopened 3 hpi, while in the AtGCN4 overexpressor lines (AtGCN4-OE6 and AtGCN4-OE16), stomata remained closed even 4 hpi with P. syringae pv. tomato DC3000. Stomatal aperture was measured after ABA and coronatine treatments in order to investigate stomatal function in AtGCN4 overexpressor lines. ABA treatment induces stomatal closure in plants. After ABA treatment, the stomatal aperture size was reduced due to closing in both wild-type Col-0 and the AtGCN4 overexpressor lines.

AtNHR1B [3] = test: qRT-PCR of AtNHR1B expression in treated wild-type Col-0 plants; type: in vivo, Arabidopsis; conditions: Col-0, 12 hpt; ABA 10 μM, Flg22 20 μM
Description: as §1, §2

AtNHR1B [4] = conditions: both mesophyll cells and guard cells, 4 hrs of 100 μM ABA; cited from earlier work
AtNHR1A [5] = conditions: 4 hrs of 100 μM ABA, cited from earlier work
[6] = tested on: stomata of Arabidopsis epidermal peels; test: Stomatal closure / aperture in epidermal peels of NHR1A lines; type: cell-based; conditions: ABA 50 μM, flg22 20 μM
Description: FIG. 6A, FIG. 6B and FIG. 6C show ABA, PAMPs, host and nonhost bacterial pathogens induce AtNHR1A, AtNHR1B, and stomatal closure in an AtNHR1A-dependent manner. Histograms are depicted of AtNHR1A (FIG. 6A) and AtNHR1B (FIG. 6B) gene expression in Arabidopsis wild-type (Col-0) plants individually syringe-infiltrated with ABA (10 μM), Flg22 (20 μM), or LPS (100 ng), or flood-inoculated with the pathogens P. syringae pv. maculicola (Psm) and P. syringae pv. tabaci (Pst) at 1×10^4 cfu/mL. Bars indicate relative gene expression in comparison with the housekeeping gene UBQ5 and in relation to the 0 hr time-point. Different letters above bars indicate a statistically significant difference within a treatment (Student's t-test; p-value=0.05). Error bars represent the standard deviation of three biological replicates (three technical replicates for each biological replicate). Histograms are depicted quantifying stomatal aperture size from epidermal peels incubated with ABA (10 μM or 50 μM), Flg22 (20 μM), LPS (100 ng) and the nonhost pathogen Pst (1×10^6 cfu/mL), where aperture size was measured after 30 min for ABA, 1 hr for flg22 and 3 hrs for Pst (FIG. 6C). […]

[7] = target: T1, COI1 (Coronatine Insensitive 1) (Arabidopsis, UniProt O04197 1-592, limits assumed); test: FAST (fast agro-mediated seedling transformation) assay in Arabidopsis Col-0 and nhr1a seedlings
T1 construct: Expressed in Arabidopsis seedlings in the FAST assay; construct not described
T1 sequence (looked up): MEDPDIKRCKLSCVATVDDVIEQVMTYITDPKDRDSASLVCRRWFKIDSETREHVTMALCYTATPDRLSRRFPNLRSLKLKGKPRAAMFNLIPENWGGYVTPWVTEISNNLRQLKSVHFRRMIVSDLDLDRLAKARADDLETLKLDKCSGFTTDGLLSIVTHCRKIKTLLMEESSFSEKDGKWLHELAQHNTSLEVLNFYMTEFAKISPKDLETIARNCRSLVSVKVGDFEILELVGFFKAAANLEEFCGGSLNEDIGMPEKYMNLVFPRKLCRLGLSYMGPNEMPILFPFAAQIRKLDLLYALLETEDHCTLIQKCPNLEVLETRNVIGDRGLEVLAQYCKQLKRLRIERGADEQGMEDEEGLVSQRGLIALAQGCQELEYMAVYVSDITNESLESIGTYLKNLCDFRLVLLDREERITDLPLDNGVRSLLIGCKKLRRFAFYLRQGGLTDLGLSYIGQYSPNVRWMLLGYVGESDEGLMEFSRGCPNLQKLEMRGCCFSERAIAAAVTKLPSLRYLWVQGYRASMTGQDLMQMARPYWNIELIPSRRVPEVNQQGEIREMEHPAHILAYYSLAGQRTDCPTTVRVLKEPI
Source text: Several JAZ proteins, such as JAZ1, JAZ2, JAZ3, JAZ6, JAZ9 and JAZ10, have been known to directly interact with COI1 in Arabidopsis (Chini et al., 2009; Melotto et al., 2008; Thines et al., 2007; Yan et al., 2009; Zhou et al., 2013). As shown above, NHR1A directly interacts with JAZ1, JAZ3, JAZ4, JAZ5, JAZ9 and JAZ12. Without being limited by theory, the present inventors hypothesize that the function of JAZ9 can be modified by binding NHR1A, and this may affect COI1-mediated signaling for stomatal closure. The fast agro-mediated seedling transformation (FAST) assay was used in Col-0 and nhr1a to investigate whether NHR1A was required for JAZ9-COI1 interaction.

AtNHR1A [8] = test: GTPase activity of AtNHR1A (GTP hydrolysis, phosphate release); type: biochemical, Arabidopsis
Description: FIG. 12A, FIG. 12B and FIG. 12C show NHR1A has GTPase activity and interacts with JAZ9 in Arabidopsis. A representative histogram is depicted showing that nhr1a is less sensitive to JA than Col-0, where roots were measured 7 days after seeds of different Arabidopsis lines were grown in MS medium plates with or without 30 μM of MeJA (FIG. 12A). Data represents three independent experiments with at least 10 seedlings per line. Bars represent the mean±SD. Asterisks indicate statistical significance (Student's t-test; p-value <0.05). A representative scatter-plot and histogram are depicted showing that the GTPase activity of NHR1A is reduced by JAZ9 as measured by the rate of phosphate (Pi) release when NHR1A protein (1 μM) was pre-loaded with GTP (1 mM) and incubated without (FIG. 12B) or with 0.25-1 μM of JAZ9 (FIG. 12C). Data represents three independent experiments. Bars represent the mean±SE.
To further examine the role of AtNHR1A, GTPase activity of AtNHR1A was assessed using purified protein in a fluorescence-based assay (Willard et al., 2005). […] This finding was quantified by measuring the phosphate (Pi) release, using the ENZchek® phosphate assay kit (Invitrogen®), after incubating NHR1A with different concentrations of JAZ9. […]
GTP binding and hydrolysis by AtNHR1A protein was measured using GTP-BODIPY-FL in real-time fluorescence assays in the presence of absence of JAZ9 protein. […]

Molecule: CC1=CC(=O)CC(C)(C)[C@@]1(O)/C=C/C(C)=C\C(=O)O [ABA, abscisic acid]
AtNHR1A induction (AtNHR1A [1]): twofold
Stomatal aperture size [2]: reduced
AtNHR1B expression (AtNHR1B [3]): highly induced
AtNHR1B transcripts vs water treatment (AtNHR1B [4]): decreased
AtNHR1A transcripts vs water-treated control (AtNHR1A [5]; Col-0 guard cells): only a slight increase
AtNHR1A transcript level vs water-treated control (AtNHR1A [5]; Col-0 mesophyll cells): approximately threefold
Stomatal response ([6]; Atnhr1a mutant): remained open
Stomatal response ([6]; Col-0, NHR1A-OE and AtNHR1A-comp lines): closed stomata

binding result [7]: binds
Reduction in phosphate release compared with AtNHR1A without JAZ9 (AtNHR1A [8]; 0.75 μM and 1 μM of JAZ9, NHR1A 1 μM pre-loaded with GTP 1 mM): 20%
Rate of GTP hydrolysis of AtNHR1A (AtNHR1A [8]; in the presence of JAZ9): significantly decreased
B1: Jasmonate-Zim-Domain Protein 9 (JAZ9, At1g70700), full-length (other, Arabidopsis, UniProt Q8W4J8 1-267, looked up)
chain: MERDFLGLSDKQYLSNNVKHEVNDDAVEERGLSTKAAREWGKSKVFATSSFMPSSDFQEAKAFPGAYQWGSVSAANVFRRCQFGGAFQNATPLLLGGSVPLPTHPSLVPRVASSGSSPQLTIFYGGTISVFNDISPDKAQAIMLCAGNGLKGETGDSKPVREAERMYGKQIHNTAATSSSSATHTDNFSRCRDTPVAATNAMSMIESFNAAPRNMIPSVPQARKASLARFLEKRKERLMSAMPYKKMLLDLSTGESSGMNYSSTSPT
notes: GAL4 domain fusion in yeast two-hybrid, EYFP-half fusion in BiFC/FAST; the construct of the JAZ9 protein added to the GTPase assays is not described
